The results in this text go back to patent US20250326815A1, “STAPLE-CONTAINING POLYPEPTIDES AND APPLICATION THEREOF” (Soter Biopharma Pte. Ltd., priority 2021, published 2025).

Holding throughout (format): cell-based
One assay deals with T1, GCGR (Homo sapiens, UniProt P47871).
T1 construct: host or cells: HEK293
Kind of assay: In vitro agonistic activity on GCGR (cAMP assay). The following applies: HEK293 cell line; for Agonistic activity on GCGR Max Activity (%): Max Dose 100 nM. As for the experimental part: (§1) The cell lines were constructed by Shanghai WuXi AppTec.
(§2) The compounds to be assayed were serially diluted 4-fold with Bravo to obtain 10 concentrations, with a starting concentration of 30 μM.
(§3) 1) 100 nL of the compound was transferred to an OptiPlate-384 plate using Echo.
(§4) 2) The OptiPlate-384 plate was centrifuged at 1000 rpm for 5 seconds.
(§5) 1) A GLP-1R/GIPR/GCGR cell cryopreservation tube was quickly placed in warm water at 37° C. to thaw.
(§6) 2) The cell suspension was transferred to a 15 mL centrifuge tube, and gently washed with 10 ml of HBSS.
(§7) 3) The centrifuge tube was centrifuged at 1000 rpm at room temperature for 1 minute.
(§8) 4) The supernatant was discarded.
(§9) 5) The cells at the bottom were gently dispersed and gently washed with 10 ml of HBSS. The cells were centrifuged and sedimented, and finally resuspended with the assay buffer.
(§10) 6) Vi-cell was used to measure the cell density and viability.
(§11) 7) The concentration of GLP-1R/GIPR/GCGR cells was diluted to 2.0*105/mL with the assay buffer.
(§12) 8) […] of the diluted cell suspension was transferred to the OptiPlate-384 plate.
(§13) 9) The plate was incubated at room temperature for 30 minutes.
(§14) 1) 10 μL of 800 nM gradient diluted cAMP standard was added into an empty well of the OptiPlate-384 plate.
(§15) 2) 10 μL of cAMP assay reagent was added.
(§16) 3) The OptiPlate-384 plate was covered with a TopSeal-A film and incubated at room temperature for 60 minutes.
(§17) The TopSeal-A was peeled off and the plate was read on the EnVision.
(In general: cAMP levels reflect the balance of adenylyl cyclase and phosphodiesterase activity.)

The target in the next assay is T2, GLP-1R (Homo sapiens, UniProt P43220).
T2 construct: host or cells: HEK293
T2 sequence (P43220 24-463, species assumed): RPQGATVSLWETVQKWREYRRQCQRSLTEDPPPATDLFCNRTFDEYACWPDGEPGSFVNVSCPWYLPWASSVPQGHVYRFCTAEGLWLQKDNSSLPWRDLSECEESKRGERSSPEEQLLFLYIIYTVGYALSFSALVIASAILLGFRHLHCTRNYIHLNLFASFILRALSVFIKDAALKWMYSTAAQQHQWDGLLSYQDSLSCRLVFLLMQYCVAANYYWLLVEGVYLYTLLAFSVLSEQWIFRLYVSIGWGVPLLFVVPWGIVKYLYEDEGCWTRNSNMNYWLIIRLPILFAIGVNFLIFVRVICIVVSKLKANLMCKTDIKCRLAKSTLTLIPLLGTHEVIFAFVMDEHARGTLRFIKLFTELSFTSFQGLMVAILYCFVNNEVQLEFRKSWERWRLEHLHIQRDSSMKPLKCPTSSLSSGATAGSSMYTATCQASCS
Kind of assay: In vitro agonistic activity on GLP-1R (cAMP assay). The following applies: HEK293 cell line; for Agonistic activity on GLP-1R Max Activity (%): Max Dose 20 nM. As for the experimental part:
as §1, §2, §3, §4, §5, §6, §7, §8, §9, §10, §11, §12, §13, §14, §15, §16, §17

A further assay deals with T3, GIPR (Homo sapiens, UniProt P48546).
T3 construct: host or cells: CHO
T3 sequence (P48546 22-466): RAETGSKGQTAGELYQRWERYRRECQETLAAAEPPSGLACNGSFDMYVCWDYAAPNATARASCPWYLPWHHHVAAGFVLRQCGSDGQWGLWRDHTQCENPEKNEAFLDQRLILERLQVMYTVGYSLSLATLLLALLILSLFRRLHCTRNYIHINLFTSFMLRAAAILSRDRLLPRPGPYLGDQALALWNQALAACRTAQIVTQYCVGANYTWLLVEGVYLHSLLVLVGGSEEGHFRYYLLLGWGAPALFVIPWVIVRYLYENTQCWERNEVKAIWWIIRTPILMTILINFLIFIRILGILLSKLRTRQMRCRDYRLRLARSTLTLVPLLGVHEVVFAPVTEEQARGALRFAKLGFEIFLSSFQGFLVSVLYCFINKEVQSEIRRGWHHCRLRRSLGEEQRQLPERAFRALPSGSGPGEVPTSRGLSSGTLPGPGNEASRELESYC
Nature of the assay: In vitro agonistic activity on GIPR (cAMP assay). Conditions: CHO cell line; for Agonistic activity on GIPR Max Activity (%): Max Dose 20 nM. As for the experimental part:
as §1, §2, §3, §4, §5, §6, §7, §8, §9, §10, §11, §12, §13, §14, §15, §16, §17

T1 sequence (P47871 26-477, species assumed): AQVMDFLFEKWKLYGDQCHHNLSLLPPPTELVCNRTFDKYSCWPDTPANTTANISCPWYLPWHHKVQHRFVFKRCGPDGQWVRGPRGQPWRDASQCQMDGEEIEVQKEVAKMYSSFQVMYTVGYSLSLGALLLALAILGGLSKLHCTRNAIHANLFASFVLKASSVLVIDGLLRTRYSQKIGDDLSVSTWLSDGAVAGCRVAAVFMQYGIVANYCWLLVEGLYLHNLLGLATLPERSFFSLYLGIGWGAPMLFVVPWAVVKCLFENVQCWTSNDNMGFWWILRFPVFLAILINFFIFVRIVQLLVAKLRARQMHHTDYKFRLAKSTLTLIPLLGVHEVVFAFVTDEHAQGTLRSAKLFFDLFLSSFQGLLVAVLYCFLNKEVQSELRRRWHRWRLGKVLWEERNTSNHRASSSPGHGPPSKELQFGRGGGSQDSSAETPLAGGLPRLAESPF

As usually defined, the EC50 is the concentration giving half of the maximal effect. Consider `CC(C)C[C@@H]1NC(=O)[C@H](CC(C)C)NC(=O)[C@H](Cc2c[nH]c3ccccc23)NC(=O)[C@@H](NC(=O)[C@@H](NC(=O)[C@H](Cc2ccccc2)NC(=O)[C@H](CCC(=O)O)NC(=O)[C@H](CCCCN)NC(=O)[C@H](C)NC(=O)[C@H](CCCCN)NC(=O)[C@H](CCCCN)NC(=O)[C@H](CCC(=O)O)NC(=O)[C@H](CC(=O)O)NC(=O)[C@H](CC(C)C)NC(=O)[C@H](Cc2ccc(O)cc2)NC(=O)[C@H](CCCCN)NC(=O)[C@H](CO)NC(=O)[C@H](Cc2ccc(O)cc2)NC(=O)[C@H](CC(=O)O)NC(=O)[C@H](CO)NC(=O)[C@@H](NC(=O)[C@H](Cc2ccccc2)NC(=O)[C@@H](NC(=O)CNC(=O)[C@H](CCC(N)=O)NC(=O)C(C)(C)NC(=O)[C@@H](N)Cc2c[nH]cn2)[C@@H](C)O)[C@@H](C)O)C(C)C)CCCCNC(=O)CN(C(=O)COCCOCCNC(=O)COCCOCCNC(=O)CC[C@H](NC(=O)CCCCCCCCCCCCCCCCCCC(=O)O)C(=O)O)CC(=O)NCCCC[C@@H](C(=O)NCC(=O)NCC(=O)N2CCC[C@H]2C(=O)N[C@@H](CO)C(=O)N[C@@H](CO)C(=O)NCC(N)=O)NC1=O` [WX005], for which, at GCGR, the EC50 stood at 2.99 nM and the “Agonistic activity on GCGR Max Activity (%)” value was 140.57%. At GLP-1R, the half-maximal effective concentration (EC50) is 0.112 nM and the “Agonistic activity on GLP-1R Max Activity (%)” value is 104.24%. Also, at GIPR, the EC50 is over 20 nM and the “Agonistic activity on GIPR Max Activity (%)” value was determined as 1.42%.

`CC(C)C[C@H](NC(=O)[C@H](CC(C)C)NC(=O)[C@H](Cc1c[nH]c2ccccc12)NC(=O)[C@H](CCC(=O)O)NC(=O)[C@@H](NC(=O)[C@H](Cc1ccccc1)NC(=O)[C@@H]1CCCCNC(=O)CN(C(=O)COCCOCCNC(=O)COCCOCCNC(=O)CC[C@H](NC(=O)CCCCCCCCCCCCCCCCCCC(=O)O)C(=O)O)CC(=O)NCCCC[C@H](NC(=O)[C@H](CCC(=O)O)NC(=O)[C@H](CC(=O)O)NC(=O)[C@H](CC(C)C)NC(=O)[C@H](Cc2ccc(O)cc2)NC(=O)[C@H](CCCCN)NC(=O)[C@H](CO)NC(=O)[C@H](Cc2ccc(O)cc2)NC(=O)[C@H](CC(=O)O)NC(=O)[C@H](CO)NC(=O)[C@@H](NC(=O)[C@H](Cc2ccccc2)NC(=O)[C@@H](NC(=O)CNC(=O)[C@H](CCC(N)=O)NC(=O)C(C)(C)NC(=O)[C@@H](N)Cc2c[nH]cn2)[C@@H](C)O)[C@@H](C)O)C(=O)N[C@@H](CCCCN)C(=O)N[C@@H](C)C(=O)N[C@@H](CCCCN)C(=O)N1)C(C)C)C(=O)N[C@@H](CCC(=O)O)C(=O)NCC(=O)NCC(=O)N1CCC[C@H]1C(=O)N[C@@H](CO)C(=O)N[C@@H](CO)C(=O)NCC(N)=O` [WX002]: at GCGR, the concentration for a half-maximal effect (EC50) amounted to 0.195 nM and the “Agonistic activity on GCGR Max Activity (%)” value stood at 144.14%. For the same compound, at GLP-1R, the EC50 was 0.0169 nM and the “Agonistic activity on GLP-1R Max Activity (%)” value is 106.52%. Also, on GIPR, the EC50 was over 20 nM and the “Agonistic activity on GIPR Max Activity (%)” value came out at 4.06%.

With `CC(C)C[C@H](NC(=O)[C@H](CC(C)C)NC(=O)[C@H](Cc1c[nH]c2ccccc12)NC(=O)[C@H](CCC(=O)O)NC(=O)[C@@H](NC(=O)[C@H](Cc1ccccc1)NC(=O)[C@@H]1CCCCNC(=O)CN(C(=O)COCCOCCNC(=O)COCCOCCNC(=O)CC[C@H](NC(=O)CCCCCCCCCCCCCCCCCCC(=O)O)C(=O)O)CC(=O)NCCCC[C@H](NC(=O)[C@H](CCCCN)NC(=O)[C@H](CCC(=O)O)NC(=O)[C@H](CC(=O)O)NC(=O)[C@H](CC(C)C)NC(=O)[C@H](Cc2ccc(O)cc2)NC(=O)[C@H](CCCCN)NC(=O)[C@H](CO)NC(=O)[C@H](Cc2ccc(O)cc2)NC(=O)[C@H](CC(=O)O)NC(=O)[C@H](CO)NC(=O)[C@@H](NC(=O)[C@H](Cc2ccccc2)NC(=O)[C@@H](NC(=O)CNC(=O)[C@H](CCC(N)=O)NC(=O)C(C)(C)NC(=O)[C@@H](N)Cc2c[nH]cn2)[C@@H](C)O)[C@@H](C)O)C(=O)N[C@@H](C)C(=O)N[C@@H](CCCCN)C(=O)N1)C(C)C)C(=O)N[C@@H](CCC(=O)O)C(=O)NCC(=O)NCC(=O)N1CCC[C@H]1C(=O)N[C@@H](CO)C(=O)N[C@@H](CO)C(=O)NCC(N)=O` [WX003], on GCGR, a half-maximal response (EC50) required 0.624 nM and the “Agonistic activity on GCGR Max Activity (%)” value is 86.01%. Moreover, on GLP-1R, the concentration giving a half-maximal response (EC50) is 0.0582 nM and the “Agonistic activity on GLP-1R Max Activity (%)” value worked out at 111.18%. For the same compound, at GIPR, the EC50 is over 20 nM and the “Agonistic activity on GIPR Max Activity (%)” value is on record as 1.57%.
